The test system of one test is IgG. Put plainly: Determination of Igs produced in in vitro culture: inhibition of IgG secreted by spleen cells (adoptive secondary immune response to DNP-As), ELISA. It is filed as cell-based, BALB/c mice. The note with it: Mus musculus, 96 h, 4 days culture; for inhibition at 1 µg/mL: 1.0 μg/ml; for inhibition at 40 µg/mL: 40.0 μg/ml; for inhibition at 5 µg/mL: 5.0 μg/ml; for inhibition at 2.5 µg/mL: 2.5 μg/ml; for inhibition at 0.25 µg/mL: 0.25 μg/ml. As for the experimental part: (§1) Determination of Igs produced in in vitro culture
(§2) BALB/c mice were immunized intraperitoneally with 5 μg of DNP-As adsorbed in 4 mg aluminum hydroxide gel. 4 weeks after the immunization, the spleens were excised from the mice and 5×10^7 spleen cells were transferred intravenously into the recipient mice which had been exposed to 600 rad of X-ray irradiation. Immediately after cell transfer, the recipients were then immunized intraperitoneally with 5 μg of DNP-As adsorbed in 4 mg aluminum hydroxide gel to induce adoptive secondary immune response. Further 4 weeks after the immunization of recipients, the spleens were excised from them and the spleen cell suspensions 5×10^6 cells/ml were cultured with or without a compound to be tested in 96-well micro plates at 37° C. for 4 days. IgE and IgG secreted into the culture supernatant was each determined correspondingly by ELISA and the inhibitory effect was calculated according to the following equation. [formula]
Background: ELISA stands for enzyme-linked immunosorbent assay.

The next test deals with IgE. Briefly: Determination of Igs produced in in vitro culture: inhibition of IgE secreted by spleen cells (adoptive secondary immune response to DNP-As), ELISA. The test is classed as cell-based, BALB/c mice. The settings on record: Mus musculus, 96 h, 4 days culture; for inhibition at 1 µg/mL: 1.0 μg/ml; for inhibition at 40 µg/mL: 40.0 μg/ml; for inhibition at 5 µg/mL: 5.0 μg/ml; for inhibition at 2.5 µg/mL: 2.5 μg/ml; for inhibition at 0.25 µg/mL: 0.25 μg/ml. The procedure:
as §1, §2

The term inhibition denotes the share of the control response that was lost under treatment. Low readings indicate little suppression, high ones strong suppression. In the case of `CSc1c(C#N)c(=O)n2ccccc2c1C(=O)OCc1ccc(Br)cc1` [S-23, 4'-Bromobenzyl 3-cyano-2-methylthio-4H-quinolizin-4-one-1-carboxylate], the inhibition at 1 µg/mL with IgG was 34%; in the test on IgE, 79%.

In the case of `CSc1c(C#N)c(=O)n2ccccc2c1C(=O)OC(C)c1ccccc1` (centres unmarked) [S-24, 1'-Phenylethyl 3-cyano-2-methylthio-4H-quinolizin-4-one-1-carboxylate], the inhibition at 40 µg/mL is 54% in the test with IgG and 77% in the test with IgE.

On to `CSc1c(C#N)c(=O)n2ccccc2c1C(=O)OCc1ccc(C)c(C)c1` [S-25, 3',4'-Dimethylbenzyl 3-cyano-2-methylthio-4H-quinolizin-4-one-1-carboxylate], for which the inhibition at 5 µg/mL in the test with IgG was 54%; in the test on IgE it was 75%.

As for `CSc1c(C#N)c(=O)n2ccccc2c1C(=O)OCc1ccc2c(c1)OCO2` [S-26, Piperonyl 3-cyano-2-methylthio-4H-quinolizin-4-one-1-carboxylate], the inhibition at 40 µg/mL came to 17% in the test on IgG and 48% in the test on IgE.

With `COc1cc(COC(=O)c2c(SC)c(C#N)c(=O)n3ccccc23)cc(OC)c1OC` [S-27, 3',4',5'-Trimethoxybenzyl 3-cyano-2-methylthio-4H-quinolizin-4-one-1-carboxylate], the inhibition at 2.5 µg/mL in the test with IgG stood at 16%; with IgE, 56%.

Consider `CSc1c(C#N)c(=O)n2ccc(C)cc2c1C(=O)OCc1ccccc1` [S-28, Benzyl 3-cyano-8-menthyl-2-methylthio-4H-quinolizin-4-one-1-carboxylate], for which the inhibition at 2.5 µg/mL in the test with IgG was determined as 24%; with IgE, 49%.

As to `CSc1c(C#N)c(=O)n2ccccc2c1C(=O)OCc1ccccc1` [S-29, Benzyl 3-cyano-2-methylthio-4H-quinolizin-4-one-1-carboxylate], the results for the inhibition at 1 µg/mL in the test with IgG and in the test with IgE were 31% and 69%, respectively.

Turning to `CSc1c(C#N)c(=O)n2ccccc2c1C(=O)OC(C)c1ccc(Br)cc1` (centres unmarked) [S-30, 1'-(4-Bromophenyl)ethyl 3-cyano-2-methylthio-4H-quinolizin-4-one-1-carboxylate], the inhibition at 0.25 µg/mL in the test with IgG came out at 27%; in the test with IgE, 45%.

Regarding `COc1ccc(COC(=O)c2c(SC)c(C#N)c(=O)n3ccccc23)cc1` [S-31, 4'-Methoxybenzyl 3-cyano-2-methylthio-4H-quinolizin-4-one-1-carboxylate], the inhibition at 40 µg/mL was 3% in the test on IgG and 34% in the test with IgE.

For the compound `CSc1c(C#N)c(=O)n2ccccc2c1C(=O)OC(C)c1ccc(C#N)cc1` (centres unmarked) [S-32, 1'-(4-Cyanophenyl)ethyl 3-cyano-2-methylthio-4H-quinolizin-4-one-1-carboxylate], the inhibition at 1 µg/mL in the test on IgG turned out to be 28%; in the test with IgE it was 52%.

For the compound `CCOc1ccc(COC(=O)c2c(SC)c(C#N)c(=O)n3ccccc23)cc1` [S-33, 4'-Ethoxybenzyl 3-cyano-2-methylthio-4H-quinolizin-4-one-1-carboxylate], the inhibition at 20 µg/mL with IgG (20.0 μg/ml) was 47%; with IgE (20.0 μg/ml), 81%.

Take `CSc1c(C#N)c(=O)n2ccccc2c1C(=O)OCc1ccc(F)cc1` [S-34, 4'-Fluorobenzyl 3-cyano-2-methylthio-4H-quinolizin-4-one-1-carboxylate]: the values for the inhibition at 0.25 µg/mL in the test on IgG and with IgE were 31% and 52%, respectively.

Turning to `COc1cccc(COC(=O)c2c(SC)c(C#N)c(=O)n3ccccc23)c1` [S-35, 3'-Methoxybenzyl 3-cyano-2-methylthio-4H-quinolizin-4-one-1-carboxylate], the values for the inhibition at 1 µg/mL with IgG and in the test on IgE were 45% and 64%, respectively.

Consider `CSc1c(C#N)c(=O)n2ccccc2c1C(=O)OCc1ccc(C(C)C)cc1` [S-36, 4'-Isopropylbenzyl 3-cyano-2-methylthio-4H-quinolizin-4-one-1-carboxylate], for which the inhibition at 0.25 µg/mL with IgG was 8%; in the test on IgE, 33%.

With `COc1ccccc1COC(=O)c1c(SC)c(C#N)c(=O)n2ccccc12` [S-37, 2'-Methoxybenzyl 3-cyano-2-methylthio-4H-quinolizin-4-one-1-carboxylate], the inhibition at 0.25 µg/mL with IgG is 11%; in the test on IgE, 36%.

Turning to `CSc1c(C#N)c(=O)n2ccccc2c1C(=O)OCc1cccc(Cl)c1` [S-38, 3'-Chlorobenzyl 3-cyano-2-methylthio-4H-quinolizin-4-one-1-carboxylate], the inhibition at 1 µg/mL with IgG was found to be 43%; in the test with IgE it was 77%.

Turning to `CSc1c(C#N)c(=O)n2ccccc2c1C(=O)OCc1ccccc1Cl` [S-39, 2'-Chlorobenzyl 3-cyano-2-methylthio-4H-quinolizin-4-one-1-carboxylate], the inhibition at 1 µg/mL in the test on IgG turned out to be 31%; with IgE, 65%.

Consider `CSc1c(C#N)c(=O)n2ccccc2c1C(=O)OCc1ccc(-c2ccccc2)cc1` [S-40, 4'-phenylbenzyl 3-cyano-2-methylthio-4H-quinolizin-4-one-1-carboxylate], for which the inhibition at 0.25 µg/mL in the test with IgG was found to be 34%; with IgE it was 53%.

In the case of `CSc1c(C#N)c(=O)n2ccccc2c1C(=O)OCc1ccc2ccccc2c1` [S-41, 2'-Napthylmethyl 3-cyano-2-methylthio-4H-quinolizin-4-one-1-carboxylate], the inhibition at 1 µg/mL in the test with IgG was 68%; in the test on IgE it was 86%.

Take `CSc1c(C#N)c(=O)n2ccccc2c1C(=O)OCc1cccc2ccccc12` [S-42, 1'-Naphthylmethyl 3-cyano-2-methylthio-4H-quinolizin-4-one-1-carboxylate]: the inhibition at 1 µg/mL worked out at 43% in the test with IgG and 75% in the test with IgE.

For the compound `CSc1c(C#N)c(=O)n2ccccc2c1C(=O)OC(C)Cc1ccccc1` (centres unmarked) [S-43, 1'-Methyl-2'-phenylethyl 3-cyano-2-methylthio-4H-quinolizin-4-one-1-carboxylate], the values for the inhibition at 1 µg/mL with IgG and with IgE were 46% and 75%, respectively.

Take `CSc1c(C#N)c(=O)n2ccccc2c1C(=O)OCC(c1ccccc1)c1ccccc1` [S-44, 2',2'-Diphenylethyl 3-cyano-2-methylthio-4H-quinolizin-4-one-1-carboxylate]: the inhibition at 1 µg/mL is 18% with IgG and 54% in the test with IgE.

As for `CSc1c(C#N)c(=O)n2ccccc2c1C(=O)OCCCc1ccccc1` [S-45, 3'-Phenylpropyl 3-cyano-2-methylthio-4H-quinolizin-4-one-1-carboxylate], the figures for the inhibition at 5 µg/mL with IgG and in the test with IgE were 16% and 71%, respectively.

Take `CSc1c(C#N)c(=O)n2ccccc2c1C(=O)OC(C)CCc1ccccc1` (centres unmarked) [S-46, 1'-Methyl-3'-phenylpropyl 3-cyano-2-methylthio-4H-quinolizin-4-one-1-carboxylate]: the inhibition at 1 µg/mL in the test on IgG was 79%; in the test on IgE it was 90%.

`CSc1c(C#N)c(=O)n2ccccc2c1C(=O)OC/C=C/c1ccccc1` [S-47, trans-Cinnamyl 3-cyano-2-methylthio-4H-quinolizin-4-one-1-carboxylate]: the inhibition at 40 µg/mL in the test on IgG came to 28%; in the test with IgE, 60%.

In the case of `CSc1c(C#N)c(=O)n2ccccc2c1C(=O)OCCc1ccccc1` [S-48, 2'-Phenylethyl 3-cyano-2-methylthio-4H-quinolizin-4-one-1-carboxylate], the inhibition at 1 µg/mL in the test on IgG came out at 15%; with IgE, 57%.

As to `CSc1c(C#N)c(=O)n2ccccc2c1C(=O)OCCCCc1ccccc1` [S-49, 4'-Phenylbutyl 3-cyano-2-methylthio-4H-quinolizin-4-one-1-carboxylate], the inhibition at 1 µg/mL in the test with IgG worked out at 56%; in the test on IgE, 80%.

Regarding `CSc1c(C#N)c(=O)n2ccc(C)cc2c1C(=O)OCCc1ccccc1` [S-50, 2'-Phenylethyl 3-cyano-8-methyl-2-methylthio-4H-quinolizin-4-one-1-carboxylate], the figures for the inhibition at 1 µg/mL in the test with IgG and with IgE were 42% and 64%, respectively.

Regarding `CSc1c(C#N)c(=O)n2ccc(C)cc2c1C(=O)OCCCc1ccccc1` [S-51, 3'-Phenylpropyl 3-cyano-8methyl-2-methylthio-4H-quinolizin-4-one-1-carboxylate], the inhibition at 1 µg/mL in the test with IgG turned out to be 43%; with IgE, 65%.

As for `CCSc1c(C#N)c(=O)n2ccccc2c1C(=O)OCCCc1ccccc1` [S-52, 3'-Phenylpropyl 3-cyano-2-ethylthio-4H-quinolizin-4-one-1-carboxylate], the inhibition at 0.25 µg/mL in the test with IgG came out at 17%; with IgE, 46%.

For `CSc1c(C#N)c(=O)n2ccccc2c1C(=O)OCCOc1ccc(Cl)cc1` [S-53, 2'-(4-Chorophenoxy)ethyl 3-cyano-2-methylthio-4H-quinolizin-4-one-1-carboxylate], the figures for the inhibition at 0.25 µg/mL with IgG and in the test with IgE were 49% and 69%, respectively.

For `CSc1c(C#N)c(=O)n2ccccc2c1C(=O)OCCCOc1ccccc1` [S-54, 3'-Phenoxypropyl 3-cyano-2-methylthio-4H-quinolizin-4-one-1-carboxylate], the inhibition at 1 µg/mL in the test with IgG is 50%; with IgE, 73%.

For the compound `CSc1c(C#N)c(=O)n2ccccc2c1C(=O)OCCSc1ccccc1` [S-55, 2'-Phenylthioethyl 3-cyano-2-methylthio-4H-quinolizin-4-one-1-carboxylate], the inhibition at 0.25 µg/mL with IgG was 29%; with IgE, 51%.

Take `C=C(C)CSc1c(C#N)c(=O)n2ccccc2c1C(=O)OCC` [S-56]: the inhibition at 5 µg/mL with IgG is 30%; with IgE, 70%.

The record behind these values is patent US4877795A, “4H-quinolizin-4-one compounds useful for the treatment of allergic bronchial asthma, allergic rhinitis atropic dermatitis and the like” (Kissei Pharmaceutical Co., Ltd., priority 1987, dated 1989).
